In patent publication US10336761B2, “TGFβ receptor antagonist” (BRISTOL-MYERS SQUIBB COMPANY, priority 2015, dated 2019):

The compounds below were run against HIS-TGFβR1 T204D (Homo sapiens (Human), UniProt P36897, T204D) (assay: HTRF probe-displacement assay, HIS-TGFβR1 T204D). Conditions: 1 hour at room temperature.
Format: binding

Sequence of HIS-TGFβR1 T204D (P36897 34-503 T204D): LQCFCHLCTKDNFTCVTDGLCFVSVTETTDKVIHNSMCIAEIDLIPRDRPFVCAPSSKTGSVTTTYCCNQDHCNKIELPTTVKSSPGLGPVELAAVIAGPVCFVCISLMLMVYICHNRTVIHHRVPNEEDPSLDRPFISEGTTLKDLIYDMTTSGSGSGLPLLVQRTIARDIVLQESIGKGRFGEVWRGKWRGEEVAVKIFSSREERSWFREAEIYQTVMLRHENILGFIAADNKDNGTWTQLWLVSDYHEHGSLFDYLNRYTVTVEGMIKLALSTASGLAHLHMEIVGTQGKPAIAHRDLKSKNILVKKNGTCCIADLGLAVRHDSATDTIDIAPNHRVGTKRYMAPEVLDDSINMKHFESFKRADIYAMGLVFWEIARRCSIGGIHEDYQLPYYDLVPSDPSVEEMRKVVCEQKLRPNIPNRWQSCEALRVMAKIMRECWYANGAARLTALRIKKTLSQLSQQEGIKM

| SMILES | IC50 [µM] |
| --- | --- |
| COc1nc(-c2nc(Nc3ccncc3F)c3cccn3n2)cs1 [Example 249, 3-fluoro-N-[2-(2-methoxy-1,3-thiazol-4-yl)pyrrolo[2,1-f][1,2,4]triazin-4-yl]pyridin-4-amine] | 0.0058 |
| O=C(NCCC(F)(F)F)c1cnccc1Nc1nc(-c2cccc(C(F)F)n2)nn2cccc12 [Example 202, 4-({2-[6-(difluoromethyl)pyridin-2-yl]pyrrolo[2,1-f][1,2,4]triazin-4-yl}amino)-N-(3,3,3-trifluoropropyl)pyridine-3-carboxamide] | 0.14 |
| CN1CCN(CC(=O)Nc2cc(Nc3nc(-c4cccc(C(F)(F)F)n4)nn4cccc34)ccn2)CC1 [Example 316, 2-(4-methylpiperazin-1-yl)-N-[4-({2-[6-(trifluoromethyl)pyridin-2-yl]pyrrolo[2,1-f][1,2,4]triazin-4-yl}amino)pyridin-2-yl]acetamide] | 0.001 |
| COc1cccc(-c2nc(Nc3ccnc(NCCN4CCC(O)CC4)c3)c3c(C)ccn3n2)n1 [Example 136, 1-{2-[(4-{[2-(6-methoxypyridin-2-yl)-5-methylpyrrolo[2,1-f][1,2,4]triazin-4-yl]amino}pyridin-2-yl)amino]ethyl}piperidin-4-ol] | 0.72 |
| CN1CCN(CCCNC(=O)c2cnccc2Nc2nc(-c3cccc(C(F)F)n3)nn3cccc23)CC1 [Example 176, 4-({2-[6-(difluoromethyl)pyridin-2-yl]pyrrolo[2,1-f][1,2,4]triazin-4-yl}amino)-N-[3-(4-methylpiperazin-1-yl)propyl]pyridine-3-carboxamide] | 0.0085 |
| CNC(=O)c1cc2c(Nc3ccncc3)nc(-c3cccc(C)n3)nn2c1 [Example 220, N-methyl-2-(6-methylpyridin-2-yl)-4-[(pyridin-4-yl)amino]pyrrolo[2,1-f][1,2,4]triazine-6-carboxamide] | 0.011 |
| CC(C)n1cc(NCc2ccn3nc(-c4ccccn4)nc(Nc4ccncc4F)c23)cn1 [Example 302, 3-fluoro-N-[5-({[1-(propan-2-yl)-1H-pyrazol-4-yl]amino}methyl)-2-(pyridin-2-yl)pyrrolo[2,1-f][1,2,4]triazin-4-yl]pyridin-4-amine] | 0.0017 |
| O=C(CCN1CC(F)(F)C1)Nc1cc(Nc2nc(-c3cccc(C(F)(F)F)n3)nn3cccc23)ccn1 [Example 341, 3-(3,3-difluoroazetidin-1-yl)-N-[4-({2-[6-(trifluoromethyl)pyridin-2-yl]pyrrolo[2,1-f][1,2,4]triazin-4-yl}amino)pyridin-2-yl]propanamide] | 0.0027 |
| Cc1cccc(-c2nc(Nc3ccncc3F)c3ccc(C(=O)O)n3n2)n1 [Example 52, 4-[(3-fluoropyridin-4-yl)amino]-2-(6-methylpyridin-2-yl)pyrrolo[2,1-f][1,2,4]triazine-7-carboxylic acid] | 0.035 |
| COc1cccc(-c2nc(Nc3ccncc3CO)c3cccn3n2)n1 [Example 206, (4-{[2-(6-methoxypyridin-2-yl)pyrrolo[2,1-f][1,2,4]triazin-4-yl]amino}pyridin-3-yl)methanol] | 0.0092 |
| COc1cccc(-c2nc(Nc3ccncc3F)c3c(CCN4CCOCC4)ccn3n2)n1 [Example 113, 3-fluoro-N-[2-(6-methoxypyridin-2-yl)-5-[2-(morpholin-4-yl)ethyl]pyrrolo[2,1-f][1,2,4]triazin-4-yl]pyridin-4-amine] | 0.12 |

Continued by falling IC50, values first:

| IC50 [µM] | SMILES |
| --- | --- |
| 2.7 | FC(F)(F)c1cccc(-c2nc(Nc3ccnc(Cl)c3)c3cccn3n2)n1 [Example 82, 2-chloro-N-{2-[6-(trifluoromethyl)pyridin-2-yl]pyrrolo[2,1-f][1,2,4]triazin-4-yl}pyridin-4-amine] |
| 1.4 | COc1cccc(-c2nc(Nc3ccncc3F)c3cc(NC(=O)CN4CCOCC4)cn3n2)n1 [Example 106, N-{4-[(3-fluoropyridin-4-yl)amino]-2-(6-methoxypyridin-2-yl)pyrrolo[2,1-f][1,2,4]triazin-6-yl}-2-(morpholin-4-yl)acetamide] |
| 0.33 | COc1cccc(-c2nc(Nc3ccncc3F)c3cc(NC(=O)CNC(=O)OC(C)(C)C)cn3n2)n1 [Example 108, tert-butyl N-[({4-[(3-fluoropyridin-4-yl)amino]-2-(6-methoxypyridin-2-yl)pyrrolo[2,1-f][1,2,4]triazin-6-yl}carbamoyl)methyl]carbamate] |
| 0.25 | Fc1cc(Nc2nc(-c3cccc(C(F)(F)F)n3)nn3cccc23)ccn1 [Example 256, 2-fluoro-N-{2-[6-(trifluoromethyl)pyridin-2-yl]pyrrolo[2,1-f][1,2,4]triazin-4-yl}pyridin-4-amine] |
| 0.16 | CCc1cc2c(Nc3ccncc3F)nc(-c3cccc(OC)n3)nn2c1 [Example 42, N-[6-ethyl-2-(6-methoxypyridin-2-yl)pyrrolo[2,1-f][1,2,4]triazin-4-yl]-3-fluoropyridin-4-amine] |
| 0.13 | COc1cccc(-c2nc(Nc3ccncc3F)c3cc(NC(=O)CNS(C)(=O)=O)cn3n2)n1 [Example 110, N-{4-[(3-fluoropyridin-4-yl)amino]-2-(6-methoxypyridin-2-yl)pyrrolo[2,1-f][1,2,4]triazin-6-yl}-2-methanesulfonamidoacetamide] |
| 0.071 | Fc1cnccc1Nc1nc(-c2ccccn2)nn2ccc(CNc3ccc(-c4cnco4)cc3)c12 [Example 297, 3-fluoro-N-[5-({[4-(1,3-oxazol-5-yl)phenyl]amino}methyl)-2-(pyridin-2-yl)pyrrolo[2,1-f][1,2,4]triazin-4-yl]pyridin-4-amine] |
| 0.047 | CC(=O)Nc1cc(Nc2nc(-c3ccc(C(F)(F)F)cn3)nn3cccc23)ccn1 [Example 332, N-[4-({2-[5-(trifluoromethyl)pyridin-2-yl]pyrrolo[2,1-f][1,2,4]triazin-4-yl}amino)pyridin-2-yl]acetamide] |
| 0.016 | COc1cccc(-c2nc(Nc3ccncc3F)c3c(C(O)CO)ccn3n2)n1 (stereo not shown) [Example 28, 1-{4-[(3-fluoropyridin-4-yl)amino]-2-(6-methoxypyridin-2-yl)pyrrolo[2,1-f][1,2,4]triazin-5-yl}ethane-1,2-diol] |
| 0.0067 | Fc1cnccc1Nc1nc(-c2ccccn2)nn2ccc(CNCC3CCCCN3)c12 (stereo not shown) [Example 265, 3-fluoro-N-(5-{[(piperidin-2-ylmethyl)amino]methyl}-2-(pyridin-2-yl)pyrrolo[2,1-f][1,2,4]triazin-4-yl)pyridin-4-amine] |
| 0.0012 | O=C(CCN1CCC(O)CC1)Nc1cc(Nc2nc(-c3cccc(C(F)(F)F)n3)nn3cccc23)ccn1 [Example 340, 3-(4-hydroxypiperidin-1-yl)-N-[4-({2-[6-(trifluoromethyl)pyridin-2-yl]pyrrolo[2,1-f][1,2,4]triazin-4-yl}amino)pyridin-2-yl]propanamide] |
| 0.0012 | CC(O)CNCc1ccn2nc(-c3ccccn3)nc(Nc3ccncc3F)c12 (stereo not shown) [Example 239, 1-[({4-[(3-fluoropyridin-4-yl)amino]-2-(pyridin-2-yl)pyrrolo[2,1-f][1,2,4]triazin-5-yl}methyl)amino]propan-2-ol] |
| 0.00059 | Fc1ccc(-c2nc(Nc3ccncc3Cl)c3cccn3n2)nc1 [Example 4, 3-chloro-N-[2-(5-fluoropyridin-2-yl)pyrrolo[2,1-f][1,2,4]triazin-4-yl]pyridin-4-amine] |
| 0.00052 | CC(O)CCNCc1ccn2nc(-c3ccccn3)nc(Nc3ccncc3F)c12 (stereo not shown) [Example 274, 4-[({4-[(3-fluoropyridin-4-yl)amino]-2-(pyridin-2-yl)pyrrolo[2,1-f][1,2,4]triazin-5-yl}methyl)amino]butan-2-ol] |
